# Assays:
# VCaP cells = assay: VCaP growth inhibition assay; format: cell-based; details: 30 pM R1881, 9 days, CTG
# Protocol: VCaP cells (ATCC Cat #CRL-2876) are plated at 1×10^4 cells per well of a white plastic 96-well cluster plate (Thermo Scientific Nunc Cat #165306) in 100 uL phenol red-free DMEM (Gibco Cat #21063-029) media with 5% CSS (Omega Scientific Cat #FB-04). Cluster plates are returned to the incubator (37*C/5% CO2) for 72 hours prior to treatment. Just prior to treatment, 100 μL of phenol red-free DMEM/5% CSS and […] R1881 (Sigma Cat #R0908-10 mg) was added to each well of the cluster plates (Final R1881 concentration=30 pM). Compounds (200×) were added to each well in a volume of 1 uL, with serial dilutions (1:5) from 20 uM to 2 pM (final concentrations in well are 100 nM to 10 fM). Cluster plates are returned to the incubator for 9 days.
# After the 9-day treatment period, media was removed from the cluster plates by inversion and 100 uL room temperature CTG reagent (Promega Cat #G7573) is added to each well. The cluster plates are placed on a shaker and incubated at room temperature for 20 minutes. Following this shaking/incubation, cluster plates are read on a luminometer (BMG ClarioStar). IC50 values are obtained by graphing the RLU data vs. compound concentration with nonlinear regression 4-parameter logistic curves (GraphPad Prism).
# AR / CBP ternary complex = assay: Ternary complex formation assay (sandwich ELISA, AR capture / CBP detection) in VCaP cell lysates; format: cell-based; details: 1.5 hours treatment, sandwich ELISA (AR capture, CBP or p300 detection)
# How it was run: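 Anti-AR (AR 441)-coated plates capture AR from lysates of VCaP cells grown ≥3 days at 50K/well in 5% charcoal-stripped FBS, dosed with bifunctional for 1.5 h and lysed 30 min at 4 °C. Co-captured CBP/p300 is probed with rabbit mAb and HRP anti-rabbit, then QuantaRed fluorescence (570/585) is read at 0, 5 and 15 min.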
IC50 (VCaP cells) [nM],EC50 (AR / CBP ternary complex) [nM],SMILES
0.1 to 1,–,"CC(=O)N1CCc2c(c(Nc3ccc(-c4cnn(C)c4)cc3F)nn2C2CCN(CC3CCN(c4ncc(C(=O)NC5C(C)(C)C(Oc6ccc(C#N)c(Cl)c6)C5(C)C)cn4)CC3)C2)C1 (centres unmarked) [Compound 7, 2-[4-[[3-[5-acetyl-3-[2-fluoro-4-(1-methylpyrazol-4-yl)anilino]-6,7-dihydro-4H-pyrazolo[4,3-c]pyridin-1-yl]pyrrolidin-1-yl]methyl]-1-piperidyl]-N-[3-(3-chloro-4-cyano-phenoxy)-2,2,4,4-tetramethyl-cyclobutyl]pyrimidine-5-carboxamide]"
≤ 0.1,–,"CC(=O)N1CCc2c(c(Nc3ccc(-c4cnn(C)c4)cc3F)nn2C2CN(C(=O)CN3CCN(c4ncc(C(=O)NC5C(C)(C)C(Oc6ccc(C#N)c(Cl)c6)C5(C)C)cn4)CC3)C2)C1 (centres unmarked) [Compound 165, 2-[4-[2-[3-[5-acetyl-3-[2-fluoro-4-(1-methylpyrazol-4-yl)anilino]-6,7-dihydro-4H-pyrazolo[4,3-c]pyridin-1-yl]azetidin-1-yl]-2-oxo-ethyl]piperazin-1-yl]-N-[3-(3-chloro-4-cyano-phenoxy)-2,2,4,4-tetramethyl-cyclobutyl]pyrimidine-5-carboxamide]"
0.1 to 1,–,"CC(=O)N1CCc2c(c(Nc3ccc(-c4cnn(C)c4)cc3F)nn2C2CCN(CCC3CCN(c4ncc(C(=O)NC5C(C)(C)C(Oc6ccc(C#N)c(Cl)c6)C5(C)C)cn4)CC3)CC2)C1 (centres unmarked) [Compound 168, 2-[4-[2-[4-[5-acetyl-3-[2-fluoro-4-(1-methylpyrazol-4-yl)anilino]-6,7-dihydro-4H-pyrazolo[4,3-c]pyridin-1-yl]-1-piperidyl]ethyl]-1-piperidyl]-N-[3-(3-chloro-4-cyano-phenoxy)-2,2,4,4-tetramethyl-cyclobutyl]pyrimidine-5-carboxamide]"
0.1 to 1,–,"CC(=O)N1CCc2c(c(N3CCCc4cc(-c5cnn(C)c5)c(C(F)F)cc43)nn2C2CCN(CCOCc3ncc(C(=O)NC4C(C)(C)C(Oc5ccc(C#N)c(Cl)c5)C4(C)C)cn3)CC2)C1 (centres unmarked) [Compound 88, 2-[2-[4-[5-acetyl-3-[7-(difluoromethyl)-6-(1-methylpyrazol-4-yl)-3,4-dihydro-2H-quinolin-1-yl]-6,7-dihydro-4H-pyrazolo[4,3-c]pyridin-1-yl]-1-piperidyl]ethoxymethyl]-N-[3-(3-chloro-4-cyano-phenoxy)-2,2,4,4-tetramethyl-cyclobutyl]pyrimidine-5-carboxamide]"
0.1 to 1,–,"COc1cc(OC2C(C)(C)C(NC(=O)c3ccc(N4CCC5(CCC(n6cc(-c7cc8cccc(-c9nn(C%10CCOCC%10)c%10c9CN(C(C)=O)CC%10)c8cn7)cn6)CC5)CC4)cc3)C2(C)C)ccc1C#N (centres unmarked) [Compound 269, 4-[9-[4-[8-(5-acetyl-1-tetrahydropyran-4-yl-6,7-dihydro-4H-pyrazolo[4,3-c]pyridin-3-yl)-3-isoquinolyl]pyrazol-1-yl]-3-azaspiro[5.5]undecan-3-yl]-N-[3-(4-cyano-3-methoxy-phenoxy)-2,2,4,4-tetramethyl-cyclobutyl]benzamide]"
0.1 to 1,–,"COc1cc(OC2C(C)(C)C(NC(=O)c3ccc(N4CCC5(CC4)CCN(c4ccc(-c6cc7cccc(-c8nn(C9CCOCC9)c9c8CN(C(C)=O)CC9)c7cn6)cn4)CC5)cc3)C2(C)C)ccc1C#N (centres unmarked) [Compound 266, 4-[3-[5-[8-(5-acetyl-1-tetrahydropyran-4-yl-6,7-dihydro-4H-pyrazolo[4,3-c]pyridin-3-yl)-3-isoquinolyl]-2-pyridyl]-3,9-diazaspiro[5.5]undecan-9-yl]-N-[3-(4-cyano-3-methoxy-phenoxy)-2,2,4,4-tetramethyl-cyclobutyl]benzamide]"
–,< 1,"CC(=O)N1CCc2c(c(N3CCCc4cc(-c5cnn(C)c5)c(C(F)F)cc43)nn2C2CN(CCC3CCN(c4ncc(C(=O)NC5C(C)(C)C(Oc6ccc(C#N)c(Cl)c6)C5(C)C)cn4)CC3)C2)C1 (centres unmarked) [Compound 162, 2-[4-[2-[3-[5-acetyl-3-[7-(difluoromethyl)-6-(1-methylpyrazol-4-yl)-3,4-dihydro-2H-quinolin-1-yl]-6,7-dihydro-4H-pyrazolo[4,3-c]pyridin-1-yl]azetidin-1-yl]ethyl]-1-piperidyl]-N-[3-(3-chloro-4-cyano-phenoxy)-2,2,4,4-tetramethyl-cyclobutyl]pyrimidine-5-carboxamide]"
–,< 1,"CC(=O)N1CCc2c(c(N3CCCc4cc(-c5cnn(C)c5)c(C(F)F)cc43)nn2C2CCN(C3CCC4(C3)CN(c3ncc(C(=O)NC5C(C)(C)C(Oc6ccc(C#N)c(Cl)c6)C5(C)C)cn3)C4)CC2)C1 (centres unmarked) [Compound 344, 2-[6-[4-[5-acetyl-3-[7-(difluoromethyl)-6-(1-methylpyrazol-4-yl)-3,4-dihydro-2H-quinolin-1-yl]-6,7-dihydro-4H-pyrazolo[4,3-c]pyridin-1-yl]-1-piperidyl]-2-azaspiro[3.4]octan-2-yl]-N-[3-(3-chloro-4-cyano-phenoxy)-2,2,4,4-tetramethyl-cyclobutyl]pyrimidine-5-carboxamide]"
–,< 1,"CC(=O)N1CCc2c(c(N3CCCc4cc(-c5cnn(C)c5)c(C)cc43)nn2C2CCN(C(=O)CC3CCN(c4ncc(C(=O)NC5C(C)(C)C(Oc6ccc(C#N)c(Cl)c6)C5(C)C)cn4)CC3)CC2)C1 (centres unmarked) [Compound 176, 2-[4-[2-[4-[5-acetyl-3-[7-methyl-6-(1-methylpyrazol-4-yl)-3,4-dihydro-2H-quinolin-1-yl]-6,7-dihydro-4H-pyrazolo[4,3-c]pyridin-1-yl]-1-piperidyl]-2-oxo-ethyl]-1-piperidyl]-N-[3-(3-chloro-4-cyano-phenoxy)-2,2,4,4-tetramethyl-cyclobutyl]pyrimidine-5-carboxamide]"
–,< 1,"CC(=O)N1CCc2c(c(N3CCCc4cc(-c5cn(C)cn5)c(C(F)F)cc43)nn2C2CCN(CC3C(C)CN(c4ncc(C(=O)NC5C(C)(C)C(Oc6ccc(C#N)c(Cl)c6)C5(C)C)cn4)CC3C)CC2)C1 (centres unmarked) [Compound 425, 2-[4-[[4-[5-acetyl-3-[7-(difluoromethyl)-6-(1-methylimidazol-4-yl)-3,4-dihydro-2H-quinolin-1-yl]-6,7-dihydro-4H-pyrazolo[4,3-c]pyridin-1-yl]-1-piperidyl]methyl]-3,5-dimethyl-1-piperidyl]-N-[3-(3-chloro-4-cyano-phenoxy)-2,2,4,4-tetramethyl-cyclobutyl]pyrimidine-5-carboxamide]"
–,< 1,"CC(=O)N1CCc2c(c(N3CCCc4cc(-c5cncs5)c(C(F)F)cc43)nn2C2CCN(CC3C(C)CN(c4ncc(C(=O)NC5C(C)(C)C(Oc6ccc(C#N)c(Cl)c6)C5(C)C)cn4)CC3C)CC2)C1 (centres unmarked) [Compound 422, 2-[4-[[4-[5-acetyl-3-[7-(difluoromethyl)-6-thiazol-5-yl-3,4-dihydro-2H-quinolin-1-yl]-6,7-dihydro-4H-pyrazolo[4,3-c]pyridin-1-yl]-1-piperidyl]methyl]-3,5-dimethyl-1-piperidyl]-N-[3-(3-chloro-4-cyano-phenoxy)-2,2,4,4-tetramethyl-cyclobutyl]pyrimidine-5-carboxamide]"
–,1 to 10,"COc1cc(OC2C(C)(C)C(NC(=O)c3ccc(N4CCC(C5CCC(n6nc(N7CCCc8cc(-c9cnn(C)c9)c(C(F)F)cc87)c7c6CCN(C(C)=O)C7)CC5)CC4)cc3)C2(C)C)ccc1C#N (centres unmarked) [Compound 258, 4-[4-[4-[5-acetyl-3-[7-(difluoromethyl)-6-(1-methylpyrazol-4-yl)-3,4-dihydro-2H-quinolin-1-yl]-6,7-dihydro-4H-pyrazolo[4,3-c]pyridin-1-yl]cyclohexyl]-1-piperidyl]-N-[3-(4-cyano-3-methoxy-phenoxy)-2,2,4,4-tetramethyl-cyclobutyl]benzamide]"

SMILES,IC50 (VCaP cells) [nM],EC50 (AR / CBP ternary complex) [nM]
"CC(=O)N1CCc2c(c(-c3cccc4cc(-c5ccc(C(=O)N6CCC(OCc7ncc(C(=O)NC8C(C)(C)C(Oc9ccc(C#N)c(Cl)c9)C8(C)C)cn7)C6)nc5)ncc34)nn2C2CCOCC2)C1 (racemic) [Compound 131, N-[3-(3-chloro-4-cyano-phenoxy)-2,2,4,4-tetramethyl-cyclobutyl]-2-[[rac-(3S)-1-[5-[8-(5-acetyl-1-tetrahydropyran-4-yl-6,7-dihydro-4H-pyrazolo[4,3-c]pyridin-3-yl)-3-isoquinolyl]pyridine-2-carbonyl]pyrrolidin-3-yl]oxymethyl]pyrimidine-5-carboxamide]",–,< 1
"COc1cc(O[C@H]2C(C)(C)[C@H](NC(=O)c3ccc(N4CCN(C5CN(c6ccc(-c7cc8c(cc7C(F)F)N(c7nn(C9CCOCC9)c9c7CN(C(C)=O)CC9)CCC8)cn6)C5)CC4)cc3)C2(C)C)ccc1C#N [Compound 326, 4-(4-(1-(5-(1-(5-acetyl-1-(tetrahydro-2H-pyran-4-yl)-4,5,6,7-tetrahydro-1H-pyrazolo[4,3-c]pyridin-3-yl)-7-(difluoromethyl)-1,2,3,4-tetrahydroquinolin-6-yl)pyridin-2-yl)azetidin-3-yl)piperazin-1-yl)-N-((1r,3r)-3-(4-cyano-3-methoxyphenoxy)-2,2,4,4-tetramethylcyclobutyl)benzamide]",–,< 1

# From US20250129070A1, “BIFUNCTIONAL ANDROGEN RECEPTOR COMPOUNDS” (priority 2023, published 2025)
